This note sets out measurements from patent US10590078B2, “Sodium channel blockers” (Daewoong Pharmaceutical Co., Ltd., priority 2015, dated 2020).

Bounds are passed on as bounds.

For the experiment, the target named is human sodium ion channel 1.7 (hNav1.7) (Homo sapiens, UniProt Q15858). In words: Blocking effect against sodium ion channel Nav1.7, IonFlux16 auto patch clamp in hNav1.7 HEK293 cells. Type of experiment: cell-based. Conditions: hNav1.7 HEK293 cells; inhibition of peak current after 50 seconds treatment; eight concentrations; read-out: IC50.
Chain of human sodium ion channel 1.7 (hNav1.7) (Q15858 whole entry): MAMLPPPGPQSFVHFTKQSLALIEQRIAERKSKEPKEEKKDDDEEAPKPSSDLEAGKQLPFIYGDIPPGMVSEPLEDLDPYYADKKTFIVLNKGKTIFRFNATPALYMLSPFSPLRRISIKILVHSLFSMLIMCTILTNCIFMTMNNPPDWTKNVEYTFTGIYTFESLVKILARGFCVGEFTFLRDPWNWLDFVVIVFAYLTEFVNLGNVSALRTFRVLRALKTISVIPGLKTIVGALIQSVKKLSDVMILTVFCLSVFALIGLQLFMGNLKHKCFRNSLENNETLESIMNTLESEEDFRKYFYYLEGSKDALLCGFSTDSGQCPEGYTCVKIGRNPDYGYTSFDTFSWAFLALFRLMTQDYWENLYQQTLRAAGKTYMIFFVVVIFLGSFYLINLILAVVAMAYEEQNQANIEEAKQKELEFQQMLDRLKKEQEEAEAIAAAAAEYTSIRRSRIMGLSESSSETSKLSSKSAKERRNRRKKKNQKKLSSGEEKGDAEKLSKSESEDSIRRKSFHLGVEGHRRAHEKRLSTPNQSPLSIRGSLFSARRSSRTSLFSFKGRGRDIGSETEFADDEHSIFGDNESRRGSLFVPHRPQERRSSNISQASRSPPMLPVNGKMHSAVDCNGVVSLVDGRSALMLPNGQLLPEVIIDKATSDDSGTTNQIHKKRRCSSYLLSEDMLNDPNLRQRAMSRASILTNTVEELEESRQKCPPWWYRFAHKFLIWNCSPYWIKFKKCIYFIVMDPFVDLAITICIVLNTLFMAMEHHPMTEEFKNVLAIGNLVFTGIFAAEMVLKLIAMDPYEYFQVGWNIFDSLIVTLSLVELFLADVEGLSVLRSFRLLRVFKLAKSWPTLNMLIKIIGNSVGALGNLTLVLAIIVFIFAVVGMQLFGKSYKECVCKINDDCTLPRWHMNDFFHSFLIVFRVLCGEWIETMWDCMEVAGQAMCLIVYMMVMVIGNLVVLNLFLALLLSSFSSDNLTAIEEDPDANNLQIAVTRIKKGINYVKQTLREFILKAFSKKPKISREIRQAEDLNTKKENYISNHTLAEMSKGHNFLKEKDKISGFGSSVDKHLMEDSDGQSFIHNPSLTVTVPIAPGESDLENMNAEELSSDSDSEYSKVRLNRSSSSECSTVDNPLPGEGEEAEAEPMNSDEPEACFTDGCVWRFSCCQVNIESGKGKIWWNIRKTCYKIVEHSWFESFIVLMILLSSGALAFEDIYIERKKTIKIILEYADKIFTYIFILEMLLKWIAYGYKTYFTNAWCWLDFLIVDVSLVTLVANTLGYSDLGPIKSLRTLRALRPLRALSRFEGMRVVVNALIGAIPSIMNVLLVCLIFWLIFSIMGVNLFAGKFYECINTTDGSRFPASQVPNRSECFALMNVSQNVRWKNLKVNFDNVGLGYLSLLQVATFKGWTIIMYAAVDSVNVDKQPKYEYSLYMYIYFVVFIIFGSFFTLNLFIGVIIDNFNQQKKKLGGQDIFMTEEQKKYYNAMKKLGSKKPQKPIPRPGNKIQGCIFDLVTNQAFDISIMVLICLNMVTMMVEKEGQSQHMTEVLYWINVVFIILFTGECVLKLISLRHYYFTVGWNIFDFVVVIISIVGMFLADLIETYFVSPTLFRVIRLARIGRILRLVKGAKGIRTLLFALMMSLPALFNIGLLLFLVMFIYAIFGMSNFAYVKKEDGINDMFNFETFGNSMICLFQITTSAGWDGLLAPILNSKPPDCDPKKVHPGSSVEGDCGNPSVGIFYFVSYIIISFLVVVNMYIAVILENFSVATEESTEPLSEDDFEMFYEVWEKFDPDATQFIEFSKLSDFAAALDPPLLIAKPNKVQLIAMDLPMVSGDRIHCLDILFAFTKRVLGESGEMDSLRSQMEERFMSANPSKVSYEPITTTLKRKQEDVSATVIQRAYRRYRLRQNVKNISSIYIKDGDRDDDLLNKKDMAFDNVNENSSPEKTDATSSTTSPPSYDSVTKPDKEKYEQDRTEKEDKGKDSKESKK

Turning to `N#Cc1cc(S(=O)(=O)Nc2cscn2)ccc1-n1nc(Cl)c2cc(C(F)(F)F)ccc21` [Example 278, 4-(3-chloro-5-(trifluoromethyl)-1H-indazol-1-yl)-3-cyano-N-(thiazol-4-yl)benzenesulfonamide], the half-inhibitory concentration (IC50) was 8.91 µM.

`CS(=O)(=O)NC(=O)c1cc(Cl)c(-n2nc(Cl)c3cc(OCCc4ccccc4)ccc32)cc1F` [Example 40, 5-chloro-4-(3-chloro-5-phenethoxy-1H-indazol-1-yl)-2-fluoro-N-(methylsulfonyl)benzamide]: the IC50 amounted to 0.19 µM.

As for `CN(C)S(=O)(=O)NC(=O)c1cc(Cl)c(-n2nc(-c3ccc(Cl)cc3F)c3cc(Cl)ccc32)cc1F` [Example 138, 5-chloro-4-(5-chloro-3-(4-chloro-2-fluorophenyl)-1H-indazol-1-yl)-N—(N,N-dimethylsulfamoyl)-2-fluorobenzamide], the IC50 amounted to 0.1 µM. Regarding `CS(=O)(=O)NC(=O)c1cc(Cl)c(-n2cc(-c3cc(Cl)ccc3F)c3cccnc32)cc1F` [Example 219, 5-chloro-4-(3-(5-chloro-2-fluorophenyl)-1H-pyrrolo[2,3-b]pyridin-1-yl)-2-fluoro-N-(methylsulfonyl)benzamide], the IC50 was determined as 0.3 µM. The value for `CS(=O)(=O)NC(=O)c1cc(Cl)c(-n2nc(-c3cccc(Cl)c3)c3cc(Cl)ccc32)cc1F` [Example 72, 5-chloro-4-(5-chloro-3-(3-chlorophenyl)-1H-indazol-1-yl)-2-fluoro-N-(methylsulfonyl)benzamide] was 0.061 µM; that for `CS(=O)(=O)NC(=O)c1cc(Cl)c(-n2nc(-c3ccc(Cl)cc3)c3cc(Cl)ccc32)cc1F` [Example 67, 5-chloro-4-(5-chloro-3-(4-chlorophenyl)-1H-indazol-1-yl)-2-fluoro-N-(methylsulfonyl)benzamide] was 0.033 µM. The value for `CS(=O)(=O)NC(=O)c1cc(Cl)c(-n2nc(Cl)c3cc(Cl)ncc32)cc1F` [Example 11, 5-chloro-4-(3,5-dichloro-1H-pyrazolo[3,4-c]pyridin-1-yl)-2-fluoro-N-(methylsulfonyl)benzamide] was over 10 µM; that for `O=S(=O)(Nc1cscn1)c1cc(Cl)c(-n2nc(-c3cn[nH]c3)c3cc(Cl)ccc32)cc1F` [Example 284, 5-chloro-4-(5-chloro-3-(1H-pyrazol-4-yl)-1H-indazol-1-yl)-2-fluoro-N-(thiazol-4-yl)benzenesulfonamide] was over 10 µM. With `CS(=O)(=O)NC(=O)c1ccc(-n2nc(-c3cccc(F)c3)c3cc(Cl)ccc32)c(F)c1` [Example 125, 4-(5-chloro-3-(3-fluorophenyl)-1H-indazol-1-yl)-3-fluoro-N-(methylsulfonyl)benzamide], the IC50 was found to be 0.56 µM. The value for `CC(C)(O)C#Cc1nn(-c2cc(F)c(C(=O)NS(C)(=O)=O)cc2Cl)c2ccc(Cl)cc12` [Example 129, 5-chloro-4-(5-chloro-3-(3-hydroxy-3-methylbut-1-yn-1-yl)-1H-indazol-1-yl)-2-fluoro-N-(methylsulfonyl)benzamide] was 1.74 µM; that for `CS(=O)(=O)NC(=O)c1cc(Cl)c(-n2cc(-c3ccc(F)cc3F)c3cccnc32)cc1F` [Example 229, 5-chloro-4-(3-(2,4-difluorophenyl)-1H-pyrrolo[2,3-b]pyridin-1-yl)-2-fluoro-N-(methylsulfonyl)benzamide] was 0.18 µM; that for `CS(=O)(=O)NC(=O)c1cc(Cl)c(-n2nc(-c3ccccc3C#N)c3cc(Cl)ccc32)cc1F` [Example 60, 5-chloro-4-(5-chloro-3-(2-cyanophenyl)-1H-indazol-1-yl)-2-fluoro-N-(methylsulfonyl)benzamide] was over 10 µM.

`CS(=O)(=O)NC(=O)c1cc(Cl)c(-n2nc(Cl)c3cc(-c4ccccc4Cl)ccc32)cc1F` [Example 252, 5-chloro-4-(3-chloro-5-(2-chlorophenyl)-1H-indazol-1-yl)-2-fluoro-N-(methylsulfonyl)benzamide]: the IC50 amounted to 0.24 µM. Then `CS(=O)(=O)NC(=O)c1cc(Cl)c(-n2nc(-c3ccc(F)c(F)c3)c3cc(F)ccc32)cc1F` [Example 161, 5-chloro-4-(3-(3,4-difluorophenyl)-5-fluoro-1H-indazol-1-yl)-2-fluoro-N-(methylsulfonyl)benzamide], with 0.12 µM. The value for `CS(=O)(=O)NC(=O)c1cc(Cl)c(-n2cc(-c3ccc(Cl)c(F)c3)c3cccnc32)cc1F` [Example 223, 5-chloro-4-(3-(4-chloro-3-fluorophenyl)-1H-pyrrolo[2,3-b]pyridin-1-yl)-2-fluoro-N-(methylsulfonyl)benzamide] was 0.23 µM; that for `CS(=O)(=O)NC(=O)c1cc(Cl)c(-n2nc(Cl)c3cc(-c4ccc(C(F)(F)F)cc4)ccc32)cc1F` [Example 251, 5-chloro-4-(3-chloro-5-(4-(trifluoromethyl)phenyl)-1H-indazol-1-yl)-2-fluoro-N-(methylsulfonyl)benzamide] was 0.113 µM. The value for `CS(=O)(=O)NC(=O)c1cc(Cl)c(-n2nc(Cl)c3cc(-c4cncnc4)ccc32)cc1F` [Example 241, 5-chloro-4-(3-chloro-5-(pyrimidin-5-yl)-1H-indazol-1-yl)-2-fluoro-N-(methylsulfonyl)benzamide] was over 10 µM.

With `COc1ccccc1-c1nn(-c2cc(F)c(C(=O)NS(C)(=O)=O)cc2Cl)c2ccccc12` [Example 174, 5-chloro-2-fluoro-4-(3-(2-methoxyphenyl)-1H-indazol-1-yl)-N-(methylsulfonyl)benzamide], the IC50 stood at 0.85 µM. Then `Cc1nn(-c2cc(F)c(S(=O)(=O)Nc3cscn3)cc2Cl)c2ccc(Cl)cc12` [Example 277, 5-chloro-4-(5-chloro-3-methyl-1H-indazol-1-yl)-2-fluoro-N-(thiazol-4-yl)benzenesulfonamide], with 0.33 µM; and `CS(=O)(=O)NC(=O)c1ccc(-n2nc(-c3ccccc3C(F)(F)F)c3cc(Cl)ccc32)c(C#N)c1` [Example 97, 4-(5-chloro-3-(2-(trifluoromethyl)phenyl)-1H-indazol-1-yl)-3-cyano-N-(methylsulfonyl)benzamide], with 0.17 µM. `CS(=O)(=O)NC(=O)c1cc(Cl)c(-n2nc(-c3ccc(Cl)cc3F)c3cc(Cl)ccc32)cc1F` [Example 66, 5-chloro-4-(5-chloro-3-(4-chloro-2-fluorophenyl)-1H-indazol-1-yl)-2-fluoro-N-(methylsulfonyl)benzamide]: the IC50 turned out to be 0.016 µM. Regarding `CS(=O)(=O)NC(=O)c1cc(Cl)c(-n2nc(-c3cccc(Cl)c3)c3ccccc32)cc1F` [Example 170, 5-chloro-4-(3-(3-chlorophenyl)-1H-indazol-1-yl)-2-fluoro-N-(methylsulfonyl)benzamide], the IC50 was found to be 0.07 µM. Then `CS(=O)(=O)NC(=O)c1cc(Cl)c(-n2nc(Cl)c3cc(C4CC4)ccc32)cc1F` [Example 24, 5-chloro-4-(3-chloro-5-cyclopropyl-1H-indazol-1-yl)-2-fluoro-N-(methylsulfonyl)benzamide], with 0.28 µM; and `CS(=O)(=O)NC(=O)c1cc(Cl)c(-n2nc(N3CCOCC3)c3cc(Cl)ccc32)cc1F` [Example 86, 5-chloro-4-(5-chloro-3-morpholino-1H-indazol-1-yl)-2-fluoro-N-(methylsulfonyl)benzamide], with over 10 µM; and `CS(=O)(=O)NC(=O)c1cc(Cl)c(-n2nc(-c3cccc(C#N)c3)c3cc(Cl)ccc32)cc1F` [Example 61, 5-chloro-4-(5-chloro-3-(3-cyanophenyl)-1H-indazol-1-yl)-2-fluoro-N-(methylsulfonyl)benzamide], with 0.096 µM. The value for `CS(=O)(=O)NC(=O)c1cc(Cl)c(-n2nc(N)c3cc(Cl)ccc32)cc1F` [Example 5, 4-(3-amino-5-chloro-1H-indazol-1-yl)-5-chloro-2-fluoro-N-(methylsulfonyl)benzamide] was over 10 µM; that for `CS(=O)(=O)NC(=O)c1cc(Cl)c(-n2cc(-c3ccc(F)cc3F)c3cc(F)cnc32)cc1F` [Example 203, 5-chloro-4-(3-(2,4-difluorophenyl)-5-fluoro-1H-pyrrolo[2,3-b]pyridin-1-yl)-2-fluoro-N-(methylsulfonyl)benzamide] was 0.08 µM.

On to `CS(=O)(=O)NC(=O)c1cc(F)c(-n2nc(-c3ccc(C(F)(F)F)cc3)c3cc(Cl)ccc32)cc1Cl` [Example 111, 2-chloro-4-(5-chloro-3-(4-(trifluoromethyl)phenyl)-1H-indazol-1-yl)-5-fluoro-N-(methylsulfonyl)benzamide], for which the IC50 amounted to 0.552 µM. The value for `COc1ccc(-c2cnc3c(c2)c(Cl)cn3-c2cc(F)c(C(=O)NS(C)(=O)=O)cc2Cl)cc1` [Example 260, 5-chloro-4-(3-chloro-5-(4-methoxyphenyl)-1H-pyrrolo[2,3-b]pyridin-1-yl)-2-fluoro-N-(methylsulfonyl)benzamide] was 0.47 µM; that for `CS(=O)(=O)NC(=O)c1cc(Cl)c(-n2nc(/C=C/c3ccccn3)c3cc(Cl)ccc32)cc1F` [Example 134, (E)-5-chloro-4-(5-chloro-3-(2-(pyridin-2-yl)vinyl)-1H-indazol-1-yl)-2-fluoro-N-(methylsulfonyl)benzamide] was 2.17 µM. Then `CS(=O)(=O)NC(=O)c1ccc(-n2cc(-c3ccc(Cl)cc3)c3cc(Cl)ccc32)nc1` [Example 274, 6-(5-chloro-3-(4-chlorophenyl)-1H-indol-1-yl)-N-(methylsulfonyl)nicotinamide], with 5.96 µM; and `N#Cc1cc(Cl)c(-n2nc(-c3ccc(Cl)cc3F)c3cc(Cl)ccc32)cc1F` [Example 288, 5-chloro-4-(5-chloro-3-(4-chloro-2-fluorophenyl)-1H-indazol-1-yl)-2-fluorobenzonitrile], with over 10 µM; and `CS(=O)(=O)NC(=O)c1cc(Cl)c(-n2nc(Cl)c3ccc(OCc4ccccc4)cc32)cc1F` [Example 45, 4-(6-(benzyloxy)-3-chloro-1H-indazol-1-yl)-5-chloro-2-fluoro-N-(methylsulfonyl)benzamide], with 0.134 µM. The value for `CS(=O)(=O)NC(=O)c1cc(Cl)c(-n2nc(-c3ccc(F)cc3F)c3cc(Cl)ccc32)cc1F` [Example 56, 5-chloro-4-(5-chloro-3-(2,4-difluorophenyl)-1H-indazol-1-yl)-2-fluoro-N-(methylsulfonyl)benzamide] was 0.04 µM.
